Reference: US10168342B2, “Lipid probes and uses thereof” (THE SCRIPPS RESEARCH INSTITUTE, priority 2015, dated 2019)
Like-named read-outs stand apart in the source and are kept apart here.

What was measured:
[1] = biological target: AEA-DA lipid probe targets in Neuro2a cells (Mus musculus, UniProt Q9ET22)
[2] = biological target: T1, AEA-DA lipid probe targets in Neuro2a cells (Mus musculus, UniProt Q8R2Y8)
T1 sequence (Q8R2Y8 1-181): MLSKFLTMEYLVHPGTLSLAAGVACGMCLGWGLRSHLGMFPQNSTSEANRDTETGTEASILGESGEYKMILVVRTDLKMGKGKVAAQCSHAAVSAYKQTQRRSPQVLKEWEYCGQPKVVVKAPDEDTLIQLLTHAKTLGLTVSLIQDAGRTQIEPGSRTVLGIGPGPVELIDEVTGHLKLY

[3] = biological target: T2, AEA-DA lipid probe targets in Neuro2a cells (Mus musculus, UniProt Q99JH8)
T2 sequence (Q99JH8 1-212): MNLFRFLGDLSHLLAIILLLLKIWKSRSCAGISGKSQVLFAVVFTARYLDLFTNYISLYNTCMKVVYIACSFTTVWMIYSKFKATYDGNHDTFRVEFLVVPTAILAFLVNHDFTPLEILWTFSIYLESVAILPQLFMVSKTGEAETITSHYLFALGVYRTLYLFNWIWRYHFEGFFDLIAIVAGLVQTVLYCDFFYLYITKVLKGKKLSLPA

[4] = biological target: T3, AEA-DA lipid probe targets in Neuro2a cells (Mus musculus, UniProt P52875)
T3 sequence (P52875 34-323): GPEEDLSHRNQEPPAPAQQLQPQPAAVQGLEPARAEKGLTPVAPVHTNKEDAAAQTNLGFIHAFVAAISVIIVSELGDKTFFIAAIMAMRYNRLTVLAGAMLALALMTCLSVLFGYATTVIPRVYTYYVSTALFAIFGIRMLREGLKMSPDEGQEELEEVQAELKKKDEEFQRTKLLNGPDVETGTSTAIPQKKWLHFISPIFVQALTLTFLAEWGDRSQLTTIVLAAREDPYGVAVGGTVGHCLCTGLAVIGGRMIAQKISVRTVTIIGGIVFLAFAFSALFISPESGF

[5] = biological target: T4, AEA-DA lipid probe targets in Neuro2a cells (Mus musculus, UniProt Q61335)
T4 sequence (Q61335 1-245): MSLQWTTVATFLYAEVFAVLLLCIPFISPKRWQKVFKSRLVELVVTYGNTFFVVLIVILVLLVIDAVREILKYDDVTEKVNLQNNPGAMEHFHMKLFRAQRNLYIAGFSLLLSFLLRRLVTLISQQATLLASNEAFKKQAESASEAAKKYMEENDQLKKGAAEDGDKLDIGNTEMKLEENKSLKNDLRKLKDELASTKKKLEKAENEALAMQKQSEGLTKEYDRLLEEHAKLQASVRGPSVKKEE

[6] = biological target: T5, AEA-DA lipid probe targets in Neuro2a cells (Mus musculus, UniProt P15626)
T5 sequence (P15626 1-218): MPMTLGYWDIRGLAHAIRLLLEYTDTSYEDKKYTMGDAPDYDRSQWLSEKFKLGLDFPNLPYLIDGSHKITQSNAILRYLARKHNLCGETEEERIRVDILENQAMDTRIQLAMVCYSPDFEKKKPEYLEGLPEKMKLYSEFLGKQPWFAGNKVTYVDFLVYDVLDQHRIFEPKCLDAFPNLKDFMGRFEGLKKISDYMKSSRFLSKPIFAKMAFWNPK

[7] = biological target: T6, AEA-DA lipid probe targets in Neuro2a cells (Mus musculus, UniProt Q5XKN4)
T6 sequence (Q5XKN4 1-183): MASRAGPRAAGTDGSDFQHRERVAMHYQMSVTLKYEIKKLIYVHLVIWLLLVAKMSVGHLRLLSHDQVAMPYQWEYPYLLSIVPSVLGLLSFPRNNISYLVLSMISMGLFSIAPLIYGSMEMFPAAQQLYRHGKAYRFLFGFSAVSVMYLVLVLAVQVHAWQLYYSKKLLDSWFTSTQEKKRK

[8] = biological target: T7, AEA-DA lipid probe targets in Neuro2a cells (Mus musculus, UniProt Q9CQF9)
T7 sequence (Q9CQF9 29-505): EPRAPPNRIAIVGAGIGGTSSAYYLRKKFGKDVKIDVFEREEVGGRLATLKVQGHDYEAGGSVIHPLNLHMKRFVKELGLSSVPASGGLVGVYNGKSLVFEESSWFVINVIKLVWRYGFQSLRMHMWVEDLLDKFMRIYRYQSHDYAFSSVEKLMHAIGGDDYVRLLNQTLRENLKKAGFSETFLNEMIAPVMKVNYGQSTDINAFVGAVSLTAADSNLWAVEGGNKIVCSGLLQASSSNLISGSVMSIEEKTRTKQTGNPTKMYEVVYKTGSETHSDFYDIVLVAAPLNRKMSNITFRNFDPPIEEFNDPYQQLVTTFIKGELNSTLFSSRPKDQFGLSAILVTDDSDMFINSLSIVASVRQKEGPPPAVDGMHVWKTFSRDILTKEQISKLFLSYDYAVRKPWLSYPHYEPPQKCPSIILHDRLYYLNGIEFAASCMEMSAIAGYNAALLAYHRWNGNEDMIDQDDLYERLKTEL

[9] = biological target: AEA-DA lipid probe targets in Neuro2a cells (Mus musculus, UniProt P18242)
AEA-DA lipid probe targets in Neuro2a cells (Mus musculus, UniProt P18242), sequence (P18242 65-410): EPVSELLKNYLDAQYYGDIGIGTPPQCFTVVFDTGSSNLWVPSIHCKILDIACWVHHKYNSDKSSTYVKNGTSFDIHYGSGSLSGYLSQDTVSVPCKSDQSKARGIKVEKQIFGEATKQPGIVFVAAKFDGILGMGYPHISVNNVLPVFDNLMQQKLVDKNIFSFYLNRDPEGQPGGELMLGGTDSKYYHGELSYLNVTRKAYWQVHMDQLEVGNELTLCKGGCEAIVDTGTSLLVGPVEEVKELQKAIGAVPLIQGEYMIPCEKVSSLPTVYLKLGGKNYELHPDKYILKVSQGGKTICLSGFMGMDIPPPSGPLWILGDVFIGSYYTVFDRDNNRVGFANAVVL

AEA-DA lipid probe targets in Neuro2a cells (Mus musculus, UniProt Q9ET22), sequence (Q9ET22 37-506): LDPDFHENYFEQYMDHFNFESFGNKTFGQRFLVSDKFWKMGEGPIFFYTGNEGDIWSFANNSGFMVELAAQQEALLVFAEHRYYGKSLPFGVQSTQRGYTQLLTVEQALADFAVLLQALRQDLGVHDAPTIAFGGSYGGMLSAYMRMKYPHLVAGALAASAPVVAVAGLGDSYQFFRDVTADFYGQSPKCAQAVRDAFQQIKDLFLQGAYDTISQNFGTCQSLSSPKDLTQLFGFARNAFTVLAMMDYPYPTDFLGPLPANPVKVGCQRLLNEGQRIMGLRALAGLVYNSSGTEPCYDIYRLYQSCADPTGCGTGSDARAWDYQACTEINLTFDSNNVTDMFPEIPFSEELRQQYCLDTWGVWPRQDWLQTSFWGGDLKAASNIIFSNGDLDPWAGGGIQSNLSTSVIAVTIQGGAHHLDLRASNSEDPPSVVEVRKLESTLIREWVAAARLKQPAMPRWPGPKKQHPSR

With `CCCCC/C=C\C/C=C\C/C=C\C/C=C\CCCC(=O)NCCO` [AEA, anandamide, reference compound] the “SILAC ratio Dpp7” value ([1]; competitor 200 μM) was 1.4, the “SILAC ratio Ptrh2” value ([2]; competitor 200 μM) was 1.5 and the “SILAC ratio Kdelr1” value ([3]; competitor 200 μM) was 1.2. The “SILAC ratio, Tmem165” value ([4]; competitor 200 μM) was 1.5, the “SILAC ratio, Bcap31” value ([5]; competitor 200 μM) was 2.3 and the “SILAC ratio, Gstm2” value ([6]; competitor 200 μM) was 2.7. The “SILAC ratio, Jagn1” value ([7]; competitor 200 μM) was 2.1, the “SILAC ratio, Pcyox1” value ([8]; competitor 200 μM) was 1.7 and the “SILAC ratio, Ctsd” value ([9]; competitor 200 μM) was 1.2.

For `C=CCN(C)CCCCCCOc1ccc(C(=O)c2ccc(Br)cc2)c(F)c1` [Ro 48-8071, reference compound], the “SILAC ratio Dpp7” value ([1]; competitor 25 μM) was 0.3, the “SILAC ratio Ptrh2” value ([2]; competitor 25 μM) was 0.9 and the “SILAC ratio Kdelr1” value ([3]; competitor 25 μM) was 1.0. For the same compound, the “SILAC ratio, Tmem165” value ([4]; competitor 25 μM) was 1.1, the “SILAC ratio, Bcap31” value ([5]; competitor 25 μM) was 1.4 and the “SILAC ratio, Gstm2” value ([6]; competitor 25 μM) was 1.3. For the same compound, the “SILAC ratio, Jagn1” value ([7]; competitor 25 μM) was 1.0, the “SILAC ratio, Pcyox1” value ([8]; competitor 25 μM) was 1.8 and the “SILAC ratio, Ctsd” value ([9]; competitor 25 μM) was 0.5.

In the case of `CN1CCN(C(=O)c2c(-c3ccccc3)c3cc([N+](=O)[O-])ccc3n2C)CC1` [KML110, (1-Methyl-5-nitro-3-phenyl-1H-indol-2-yl)(4-methylpiperazin-1-yl)methanone], the “SILAC ratio Dpp7” value ([1]; competitor 25 μM) is reported as 1.5, the “SILAC ratio Ptrh2” value ([2]; competitor 25 μM) is reported as 1.0 and the “SILAC ratio Kdelr1” value ([3]; competitor 25 μM) is reported as 1.1. For the same compound, the “SILAC ratio, Tmem165” value ([4]; competitor 25 μM) was 1.5, the “SILAC ratio, Bcap31” value ([5]; competitor 25 μM) was 2.0 and the “SILAC ratio, Jagn1” value ([7]; competitor 25 μM) was 1.5. For the same compound, the “SILAC ratio, Pcyox1” value ([8]; competitor 25 μM) was 1.5 and the “SILAC ratio, Ctsd” value ([9]; competitor 25 μM) was 1.4.

`O=C(/C=C/c1cccnc1)NCCCCC1CCN(C(=O)c2ccccc2)CC1` [FK-866, reference compound] was tested, and the “SILAC ratio Dpp7” value ([1]; competitor 25 μM) was 1.0, the “SILAC ratio Ptrh2” value ([2]; competitor 25 μM) was 1.0 and the “SILAC ratio Kdelr1” value ([3]; competitor 25 μM) was 1.1. For the same compound, the “SILAC ratio, Tmem165” value ([4]; competitor 25 μM) was 1.1, the “SILAC ratio, Bcap31” value ([5]; competitor 25 μM) was 1.6 and the “SILAC ratio, Gstm2” value ([6]; competitor 25 μM) was 1.5. For the same compound, the “SILAC ratio, Jagn1” value ([7]; competitor 25 μM) was 1.1, the “SILAC ratio, Pcyox1” value ([8]; competitor 25 μM) was 1.2 and the “SILAC ratio, Ctsd” value ([9]; competitor 25 μM) was 1.0.

With `CN1CCN(C(=O)c2[nH]c3ccc([N+](=O)[O-])cc3c2-c2ccccc2)CC1` [MJN228, (4-Methylpiperazin-1-yl)(5-nitro-3-phenyl-1H-indol-2-yl)methanone] the “SILAC ratio Dpp7” value ([1]; competitor 10 μM) was 1.0, the “SILAC ratio Dpp7” value ([1]; competitor 25 μM) was 0.7 and the “SILAC ratio Dpp7” value ([1]; competitor 50 μM) was 1.0. For the same compound, the “SILAC ratio Dpp7” value ([1]; competitor 100 μM) was 0.7, the “SILAC ratio Ptrh2” value ([2]; competitor 10 μM) was 1.1 and the “SILAC ratio Ptrh2” value ([2]; competitor 25 μM) was 1.0. For the same compound, the “SILAC ratio Ptrh2” value ([2]; competitor 50 μM) was 1.2, the “SILAC ratio Ptrh2” value ([2]; competitor 100 μM) was 1.1 and the “SILAC ratio Kdelr1” value ([3]; competitor 10 μM) was 1.1. For the same compound, the “SILAC ratio Kdelr1” value ([3]; competitor 25 μM) was 1.2, the “SILAC ratio Kdelr1” value ([3]; competitor 50 μM) was 1.5 and the “SILAC ratio Kdelr1” value ([3]; competitor 100 μM) was 1.5. The “SILAC ratio, Tmem165” value ([4]; competitor 10 μM) was 1.0, the “SILAC ratio, Tmem165” value ([4]; competitor 25 μM) was 1.2 and the “SILAC ratio, Tmem165” value ([4]; competitor 100 μM) was 1.5. The “SILAC ratio, Bcap31” value ([5]; competitor 10 μM) was 2.1, the “SILAC ratio, Bcap31” value ([5]; competitor 25 μM) was 2.5 and the “SILAC ratio, Bcap31” value ([5]; competitor 50 μM) was 3.8. For the same compound, the “SILAC ratio, Bcap31” value ([5]; competitor 100 μM) was 4.0, the “SILAC ratio, Gstm2” value ([6]; competitor 10 μM) was 1.6 and the “SILAC ratio, Gstm2” value ([6]; competitor 25 μM) was 1.6. The “SILAC ratio, Gstm2” value ([6]; competitor 100 μM) was 2.2, the “SILAC ratio, Jagn1” value ([7]; competitor 10 μM) was 1.2 and the “SILAC ratio, Jagn1” value ([7]; competitor 25 μM) was 1.4. For the same compound, the “SILAC ratio, Jagn1” value ([7]; competitor 50 μM) was 1.6, the “SILAC ratio, Jagn1” value ([7]; competitor 100 μM) was 2.1 and the “SILAC ratio, Pcyox1” value ([8]; competitor 10 μM) was 1.2. For the same compound, the “SILAC ratio, Pcyox1” value ([8]; competitor 25 μM) was 1.4, the “SILAC ratio, Pcyox1” value ([8]; competitor 50 μM) was 1.6 and the “SILAC ratio, Pcyox1” value ([8]; competitor 100 μM) was 2.2. For the same compound, the “SILAC ratio, Ctsd” value ([9]; competitor 10 μM) was 1.2, the “SILAC ratio, Ctsd” value ([9]; competitor 25 μM) was 1.2 and the “SILAC ratio, Ctsd” value ([9]; competitor 50 μM) was 1.2. For the same compound, the “SILAC ratio, Ctsd” value ([9]; competitor 100 μM) was 1.1.
